# Assay results reported in US9724351B2, “Compounds for the treatment of paramoxyvirus viral infections” (priority 2012, dated 2017).
# Experiments:
# [1] = tested on: Respiratory Syncytial Virus (RSV) long strain (ATCC#VR-26); assay: RSV Antiviral Assay (CPE reduction assay); assay type: cell-based; settings: human respiratory syncytial virus, 120 h; HEp-2 cells infected with RSV long strain, 5 days, CCK-8 readout; bins (Table 2: less than 1 μM; Table 3: equal to or higher than 1 μM and less than 50 μM); read-out: 50% effective concentration (EC50)
# Procedure, shortened: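 Cytopathic-effect protection measured after 5 days at 37 °C, 5% CO2 via CCK-8 dehydrogenase readout at 450 nm (630 nm reference), EC50 regressed from mean O.D. Host HEp-2 cells received RSV long strain at 100 TCID50/well; compound 9-point ⅓ series starting 100 μM or 1 μM, 1% DMSO, duplicate wells.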
# [2] = Cytotoxicity Determination; assay type: cell-based; settings: human, HEp-2 cells, without addition of virus, CCK-8 readout, bins (Table 4: greater than 100 μM; Table 5: equal to or less than 100 μM and greater than 10 μM), read-out: 50% cytotoxicity concentration (CC50)
# Procedure, shortened: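 CC50 was derived from CCK-8 optical density after a 3-4 h reagent incubation. Before that, cells without virus had been treated for 5 days at 37 °C, 5% CO2 with compound at seven ½-step final concentrations from 100 μM, in duplicate wells.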
compound,measurement,setting,value
COc1cc(C(=O)NCC(=O)c2ccc(OC)c(-c3csc4c(F)cccc34)n2)ccc1OCCN [Compound 1232],EC50,[1],< 1 µM
same,CC50 at 5 days,[2],10 to 100 µM
CCOc1ccc(C(=O)NCC(=O)N/N=C2\CN(CC)Cc3sc4c(F)cccc4c32)cc1OC [Compound 464],EC50,[1],< 1 µM
same,CC50 at 5 days,[2],> 100 µM
COc1cc(C(=O)NCC(=O)c2cccc(-c3csc4c(F)cccc34)n2)ccc1OCCn1ccnc1 [Compound 1246],EC50,[1],1 to 50 µM
same,CC50 at 5 days,[2],10 to 100 µM
COc1ccc(C(=O)CNC(=O)c2ccncn2)nc1-c1ccc(F)c(Cl)c1 [Compound 4205],EC50,[1],1 to 50 µM
same,CC50 at 5 days,[2],> 100 µM
COc1ccc(C(=O)NCC(=O)N/N=C(\CCC(C)C)c2csc3ccccc23)cc1OC [Compound 455A],EC50,[1],< 1 µM
same,CC50 at 5 days,[2],> 100 µM
COCC/C(=N/NC(=O)CNC(=O)c1ccc(OC2COC2)c(OC)c1)c1csc2c(F)cccc12 [Compound 514B],EC50,[1],< 1 µM
same,CC50 at 5 days,[2],> 100 µM
CCCC/C(=N\NC(=O)CNC(=O)c1ccc(OC)c(OCC)c1)c1csc2ccccc12 [Compound 246A],EC50,[1],< 1 µM
same,CC50 at 5 days,[2],10 to 100 µM
COc1ccc(C(=O)CNC(=O)c2ccnc(C)c2)nc1-c1ccc(F)c(Cl)c1 [Compound 4204],EC50,[1],1 to 50 µM
same,CC50 at 5 days,[2],> 100 µM
COc1cc(C(=O)NCC(=O)c2ccc(OC)c(-c3ccc(F)c(Br)c3)n2)ccc1OCc1cnc[nH]1 [Compound 1333],EC50,[1],< 1 µM
same,CC50 at 5 days,[2],10 to 100 µM
COc1ccc(C(=O)NCC(=O)N/N=C(\C)c2csc3cc(F)ccc23)cc1OC [Compound 400-22],EC50,[1],1 to 50 µM
same,CC50 at 5 days,[2],10 to 100 µM
COc1ccc(C(=O)NCC(=O)c2cc(C=C(C)C)cc(-c3csc4c(F)cccc34)n2)cc1OC [Compound 1238],EC50,[1],1 to 50 µM
same,CC50 at 5 days,[2],> 100 µM
CCSc1ccc(C(=O)NCC(=O)N/N=C/c2csc3ccccc23)cc1 [Compound 238],EC50,[1],< 1 µM
same,CC50 at 5 days,[2],10 to 100 µM
COCC/C(=N\NC(=O)CNC(=O)c1ccc(OC2COC2)c(OC)c1)c1csc2c(F)cccc12 [Compound 514A],EC50,[1],< 1 µM
same,CC50 at 5 days,[2],> 100 µM
CNc1ccc2scc(/C=N/NC(=O)CNC(=O)c3ccc(OC)c(OC)c3)c2c1 [Compound 400-18],EC50,[1],1 to 50 µM
same,CC50 at 5 days,[2],> 100 µM
COc1ccc(C(=O)NCC(=O)N/N=C2\CCCc3sccc32)cc1OC [Compound 436],EC50,[1],1 to 50 µM
same,CC50 at 5 days,[2],> 100 µM
COc1cc(C(=O)NCC(=O)c2ccc3c(n2)-c2c(sc4c(F)cccc24)CO3)ccc1OCCO [Compound 2703],EC50,[1],1 to 50 µM
same,CC50 at 5 days,[2],10 to 100 µM
COc1cc(OC)c(C(=O)NCC(=O)N/N=C(\C)c2csc3ccccc23)cc1OC [Compound 480],EC50,[1],1 to 50 µM
same,CC50 at 5 days,[2],> 100 µM
CCNc1ccc(C(=O)NCC(=O)N/N=C(\C)c2csc3ccccc23)cc1OC [Compound 508],EC50,[1],1 to 50 µM
same,CC50 at 5 days,[2],> 100 µM
COc1ccc(C(=O)NCC(=O)N/N=C(\C)c2cc(C)sc2C)cc1OC [Compound 438],EC50,[1],1 to 50 µM
same,CC50 at 5 days,[2],> 100 µM
COc1ccc(C(=O)NCC(=O)c2ccc(OC)c(-c3ccccc3F)n2)cc1OC [Compound 1528],EC50,[1],1 to 50 µM
same,CC50 at 5 days,[2],> 100 µM
COc1cc(C(=O)NCC(=O)c2ccc(OC)c(-c3ccncc3)n2)ccc1OCCO [Compound 1619],EC50,[1],1 to 50 µM
same,CC50 at 5 days,[2],> 100 µM
COc1ccc(C(=O)NCC(=O)N/N=C(\C)c2csc3c(N)cccc23)cc1OC [Compound 497],EC50,[1],1 to 50 µM
same,CC50 at 5 days,[2],> 100 µM
COc1cc(C(=O)NCC(=O)c2cccc(-c3csc4c(F)cccc34)n2)ccc1OCc1nc[nH]n1 [Compound 1242],EC50,[1],1 to 50 µM
same,CC50 at 5 days,[2],10 to 100 µM
CCOc1ccc(C(=O)NCC(=O)N/N=C(\CCOC)c2csc3c(F)cccc23)cc1OC [Compound 463A],EC50,[1],< 1 µM
same,CC50 at 5 days,[2],> 100 µM
COc1ccc(C(=O)NCC(=O)N/N=C2\CCOc3ccccc32)cc1OC [Compound 452],EC50,[1],1 to 50 µM
same,CC50 at 5 days,[2],> 100 µM
COc1ccc(C(=O)NCC(=O)N/N=C(\C)c2csc3ncccc23)cc1OC [Compound 400-10],EC50,[1],1 to 50 µM
same,CC50 at 5 days,[2],> 100 µM
COc1ccc(C(=O)NCC(=O)N2CCCC(c3csc4c(F)cccc34)=N2)cc1OC [Compound 3501],EC50,[1],< 1 µM
same,CC50 at 5 days,[2],10 to 100 µM
CCOC(=O)c1c[nH]c2c(/C=N/NC(=O)CNC(=O)c3ccc(OC)c(OC)c3)csc2c1=O [Compound 498],EC50,[1],1 to 50 µM
same,CC50 at 5 days,[2],> 100 µM
COc1ccc(C(=O)NCC(=O)N/N=C(\CC#N)c2csc3ccccc23)cc1OC [Compound 456],EC50,[1],1 to 50 µM
same,CC50 at 5 days,[2],> 100 µM
COc1ccc(C(=O)NCC(=O)N/N=C(\C)c2csc3c(Cl)cccc23)cc1OC [Compound 400-11],EC50,[1],1 to 50 µM
same,CC50 at 5 days,[2],10 to 100 µM
COc1ccc(C(=O)NCC(=O)c2ccc3cccnc3c2)cc1OC [Compound 1700],EC50,[1],1 to 50 µM
same,CC50 at 5 days,[2],> 100 µM
CCN1C/C(=N\NC(=O)CNC(=O)c2ccc(OC)c(OC)c2)c2c(sc3c(F)cccc23)C1 [Compound 400-23],EC50,[1],< 1 µM
same,CC50 at 5 days,[2],> 100 µM
COc1ccc(C(=O)NCC(=O)N2CCCN(c3csc4c(F)cccc34)C2=O)cc1OC [Compound 2800],EC50,[1],1 to 50 µM
same,CC50 at 5 days,[2],10 to 100 µM
COc1cc(C(=O)NCC(=O)c2cc(N(C)C)cc(-c3csc4c(F)cccc34)n2)ccc1OCCO [Compound 1245],EC50,[1],< 1 µM
same,CC50 at 5 days,[2],> 100 µM
COc1cc(C(=O)NCC(=O)c2cc(CO)cc(-c3ccc(F)c(Cl)c3)n2)ccc1OCC1CC1 [Compound 3800],EC50,[1],< 1 µM
same,CC50 at 5 days,[2],10 to 100 µM
COc1ccc(C(=O)NCC(=O)c2nc(-c3csc4c(F)cccc34)cn2C)cc1OC [Compound 1353],EC50,[1],1 to 50 µM
same,CC50 at 5 days,[2],> 100 µM
COc1cc(C(=O)N[C@@H](CO)C(=O)c2ccc(OC)c(-c3csc4c(F)cccc34)n2)ccc1OCCO [Compound 1830],EC50,[1],< 1 µM
same,CC50 at 5 days,[2],> 100 µM
COCCOc1ccc(C(=O)NCC(=O)c2ccc(OC)c(-c3ccc(F)c(Cl)c3)n2)cc1C [Compound 1317],EC50,[1],1 to 50 µM
same,CC50 at 5 days,[2],> 100 µM
COc1ccc(C(=O)NCC(=O)N/N=C/c2c(C)sc3ccccc23)cc1OC [Compound 400],EC50,[1],1 to 50 µM
same,CC50 at 5 days,[2],10 to 100 µM
COCC/C(=N\NC(=O)CNC(=O)c1ccc(OC)c(OC)c1O)c1csc2c(F)cccc12 [Compound 300],EC50,[1],< 1 µM
same,CC50 at 5 days,[2],10 to 100 µM
COc1cc(C(=O)N[C@@H](CCCCN)C(=O)c2ccc(OC)c(-c3csc4c(F)cccc34)n2)ccc1OCCO [Compound 1835],EC50,[1],< 1 µM
same,CC50 at 5 days,[2],10 to 100 µM
COc1ccc(C(=O)NCC(=O)c2csc(-c3csc4c(F)cccc34)n2)cc1OC [Compound 1210],EC50,[1],1 to 50 µM
same,CC50 at 5 days,[2],> 100 µM
COc1cc(C(=O)NCC(=O)N(C)/N=C/c2c(F)sc3c(F)cccc23)ccc1OCCO [Compound 2304],EC50,[1],1 to 50 µM
same,CC50 at 5 days,[2],10 to 100 µM
COc1cc(C(=O)NCC(=O)c2ccc(OC)c(-c3ccc(Cl)c(C(F)(F)F)c3)n2)ccc1OCCO [Compound 1623],EC50,[1],< 1 µM
same,CC50 at 5 days,[2],> 100 µM
COc1cc(C(=O)NCC(=O)N/N=C(\C)c2csc3ccccc23)ccc1OCCO [Compound 600],EC50,[1],< 1 µM
same,CC50 at 5 days,[2],> 100 µM
COc1cc(C(=O)N[C@H](CCO)C(=O)c2ccc(OC)c(-c3ccc(F)c(C(F)(F)F)c3)n2)ccc1OCCO [Compound 1806],EC50,[1],< 1 µM
same,CC50 at 5 days,[2],> 100 µM
COc1cc(C(=O)NCC(=O)c2ccc(OC)c(-c3ccc(Cl)c(Cl)c3)n2)ccc1OCCO [Compound 1616],EC50,[1],< 1 µM
same,CC50 at 5 days,[2],> 100 µM
COc1ccc(C(=O)NCC(=O)c2cc(C(C)(C)C)cc(-c3csc4c(F)cccc34)n2)cc1OC [Compound 1252],EC50,[1],< 1 µM
same,CC50 at 5 days,[2],> 100 µM
COc1cc(C(=O)NCC(=O)c2ccc(OC)c(-c3ccc(F)c(Cl)c3)n2)ccc1OCC(N)=O [Compound 1316],EC50,[1],< 1 µM
same,CC50 at 5 days,[2],> 100 µM
COc1ccc(C(=O)NCC(=O)c2ccc(OC)c(-c3ccc4ncccc4c3)n2)cc1OC [Compound 1507],EC50,[1],1 to 50 µM
same,CC50 at 5 days,[2],10 to 100 µM
COc1ccc(C(=O)NCC(=O)c2ccc(OC)c(-c3ccc4cn(C)nc4c3)n2)cc1OC [Compound 1538],EC50,[1],1 to 50 µM
same,CC50 at 5 days,[2],> 100 µM
COc1ccc(C(=O)NCC(=O)c2ccc(OC)c(-c3cccc4ccccc34)n2)cc1OC [Compound 1513],EC50,[1],1 to 50 µM
same,CC50 at 5 days,[2],10 to 100 µM
COc1ccc(C(=O)NCC(=O)N/N=C/c2csc3c(F)cccc23)cc1OC [Compound 490],EC50,[1],< 1 µM
same,CC50 at 5 days,[2],> 100 µM
COc1cc(C(=O)N[C@@H](COC(C)(C)C)C(=O)c2ccc(OC)c(-c3csc4c(F)cccc34)n2)ccc1OCCO [Compound 1819],EC50,[1],< 1 µM
same,CC50 at 5 days,[2],10 to 100 µM
COc1ccc(C(=O)NCC(=O)c2cccc(-c3csc4c(F)cccc34)c2)cc1OC [Compound 1218],EC50,[1],1 to 50 µM
same,CC50 at 5 days,[2],> 100 µM
COc1ccc(C(=O)NC(C)CC(=O)c2ccc(OC)c(-c3csc4c(F)cccc34)n2)cc1OC (stereo not shown) [Compound 1801],EC50,[1],1 to 50 µM
same,CC50 at 5 days,[2],> 100 µM
CCOc1ccc(C(=O)NCC(=O)c2ccc(OC)c(-c3ccc(F)c(Cl)c3)n2)cc1OC [Compound 2641],EC50,[1],< 1 µM
same,CC50 at 5 days,[2],> 100 µM
CCCC/C(=N/NC(=O)CNC(=O)c1ccc(OCCO)c(OC)c1)c1csc2c(F)cccc12 [Compound 602],EC50,[1],< 1 µM
same,CC50 at 5 days,[2],> 100 µM
COc1ccc(C(=O)NCC(=O)c2ccc(OC)c(-c3cccc(F)c3F)n2)cc1OC [Compound 1526],EC50,[1],1 to 50 µM
same,CC50 at 5 days,[2],> 100 µM
